Measurements: patent publication US6743798B1, “Substituted pyrazole derivatives condensed with six-membered heterocyclic rings” (Bayer Aktiengesellschaft, priority 1998, dated 2004)
Like-named read-outs stand apart in the source and are kept apart here.

What was measured:
[1] = test system: soluble guanylate cyclase; assay: Stimulation of soluble guanylate cyclase in primary endothelial cells; format: cell-based, pig; details: for Increase in the cGMP concentration (%): test substances final concentration 1 μM, 10 minutes, primary endothelial cells from pig aortas
Procedure: Primary endothelial cells were isolated from pig aortas by treatment with collagenase soln. The cells were then cultured in culture medium at 37 °C/5% CO2 until confluence was reached. For the investigations, the cells were passaged, inoculated into 24-well cell culture plates and subcultured until reaching confluence (˜2×10^5 cells/well). For the stimulation of endothelial guanylate cyclase, the culture medium was aspirated and the cells were washed once with Ringer solution. After removing the Ringer solution, the cells were incubated for 10 minutes at 37° C./5% CO2 in stimulation buffer with or without NO donor (sodium nitroprusside, SNP or DEA/NO 1 μM). […] After the incubation time had ended, the buffer solution was aspirated and cold buffer at 4° C. was added to the cells. The cells were then lysed at −20° C. for 16 hours. The supernatants containing the intracellular cGMP were then removed and the cGMP concentration was determined by means of the cGMP-SPA system (Amersham Buchler, Brunswick).

[2] = test system: rabbit aortal rings preconcentrated with phenylephrine; assay: Vasorelaxant action in vitro; format: cell-based; details: Oryctolagus cuniculus, read-out: IC50 [μM] vasorelaxant action
Procedure: (§1) To determine the cardiovascular action, the following investigations were carried out: In in vitro investigations on the isolated and on cells of vascular origin, the effect on guanylate cyclase-dependent cGMP formation was tested with and without NO donor. The anti-aggregatory properties were shown on human platelets stimulated with collagen. The vasorelaxant action was determined in rabbit aortal rings preconcentrated with phenylephrine. The hypotensive action was investigated in anaesthetized and awake rats.
Rabbits are anaesthetized by a blow to the neck and exanguinated. The aorta is removed, freed from adhering tissue, divided into 1.5 mm wide rings and individually transferred under a pretension into 5 ml organ baths containing a warm, carbogen-aerated Krebs-Henseleit solution at 37° C. of the following composition (mM): NaCl: 119; KCl: 4.8; CaCl2×2H2O: 1; MgSO4×7H2O; 1.4; KH2PO4: 1.2; NaHCO3: 25; glucose: 10. The contractility is detected using Statham UC2 cells, amplified and digitalized by means of A/D converters (DAS-1802 HC, Keithley Instruments Munich), and recorded in parallel on linear recorders. To produce a contraction, phenylephrin is added to the bath cumulatively in increasing concentration. […]

anaesthetized rats = assay: Blood pressure measurements in anaesthetized rats; format: in vivo, rat
Procedure: Male Wister rats having a bodyweight of 300-350 g are anaesthetized with Thiopental (100 mg/kg i.p.). After tracheotomy, a catheter is inserted into the femoral artery for blood pressure measurement. The substances to be tested are administered orally in Transcutol, Cremophor EL, H2O (10%/20%/70%) in a volume of 1 ml/kg.

[3] = test system: human platelets stimulated with collagen; assay: Inhibition of platelet aggregation in vitro; format: cell-based; details: 10 min, collagen-induced aggregation, 10 min incubation at 37° C.
Procedure: as §1
To determine the platelet-aggregation, blood from healthy volunteers of both sexes was used. As an anticoagulant, 9 parts of blood were admixed to one part of 3.8% strength sodium citrate solution. The blood was centrifuged at 900 rpm for 20 min. The pH of the platelet-rich plasma obtained was adjusted to pH 6.5 using ACD solution (sodium citrate/citric acid/glucose). The platelets were subsequently centrifuged off and resuspended in buffer and once more centrifuged off. The platelet pellet was suspended in buffer and mixed with an additional 2 mmol/l of CaCl2.
To measure the aggregation, aliquots of the platelet suspension were incubated with the substance to be tested at 37° C. for 10 min.

CS(=O)(=O)c1cnc(-c2nn(Cc3ccccc3F)c3ncccc23)nc1N [Example 1, 3-(4-Amino-5-methylsulphonylpyrimidin-2-yl)-1-(2-fluorobenzyl)-1H-pyrazolo[3,4-b]pyridine]
Increase in the cGMP concentration (%) [1]: >1000%
IC50 ([2]; rabbit aorta rings, phenylephrin contraction reduced by 50%): 0.23 µM

NC(=O)c1cnc(-c2nn(Cc3ccccc3F)c3ncccc23)nc1N [Example 6]
melting point: 215 °C
Increase in the cGMP concentration (%) [1]: 600%

Nc1nc(-c2nn(Cc3ccccc3F)c3ncccc23)ncc1CC(F)(F)F [Example 8]
melting point: 181 °C

Cc1ccc(-c2nc(-c3nn(Cc4ccccc4F)c4ncccc34)ncc2C#N)cc1 [Example 14, 3-[5-Cyano-4-(4-methylphenyl)pyrimidin-2-yl]-1-(2-fluorobenzyl)-1H-pyrazolo[3,4-b]pyridine]
Increase in the cGMP concentration (%) [1]: >1000%

Nc1nc(-c2nn(Cc3ccccc3F)c3ncccc23)nc(N)c1N1CCOCC1 [Example 16, 3-(4,6-Diamino-5-N-morpholinopyrimidin-2-yl)-1-(2-fluorobenzyl)-1H-pyrazolo[3,4-b]pyridine]
cGMP (pmol/well) ([1]; Ex. 16 0.1 μM): 5.1 pmol/well
cGMP (pmol/well) ([1]; Ex. 16 0.3 μM): 13.2 pmol/well
cGMP (pmol/well) ([1]; Ex. 16 1.0 μM): 20.8 pmol/well
cGMP (pmol/well) ([1]; Ex. 16 3.0 μM): 34.5 pmol/well
cGMP (pmol/well) ([1]; Ex. 16 10 μM): 47.7 pmol/well
max. reduction in blood pressure (mm Hg) (anaesthetized rats; 0.3 mg/kg p.o.): 21 mm Hg
max. reduction in blood pressure (mm Hg) (anaesthetized rats; 1.0 mg/kg p.o.): 35 mm Hg
IC50 [2]: 0.2 µM
IC50 [3]: 0.06 µM
